Reference: patent publication US20250171437A1 (Agios Pharmaceuticals,Inc., priority 2022, published 2025)

Molecular target: T1, human PAH with the R408W mutation (A375 R408W cells) (Homo sapiens, UniProt P00439, R408W)
T1 construct: expressed in transfected cells
T1 sequence (P00439 1-452 R408W): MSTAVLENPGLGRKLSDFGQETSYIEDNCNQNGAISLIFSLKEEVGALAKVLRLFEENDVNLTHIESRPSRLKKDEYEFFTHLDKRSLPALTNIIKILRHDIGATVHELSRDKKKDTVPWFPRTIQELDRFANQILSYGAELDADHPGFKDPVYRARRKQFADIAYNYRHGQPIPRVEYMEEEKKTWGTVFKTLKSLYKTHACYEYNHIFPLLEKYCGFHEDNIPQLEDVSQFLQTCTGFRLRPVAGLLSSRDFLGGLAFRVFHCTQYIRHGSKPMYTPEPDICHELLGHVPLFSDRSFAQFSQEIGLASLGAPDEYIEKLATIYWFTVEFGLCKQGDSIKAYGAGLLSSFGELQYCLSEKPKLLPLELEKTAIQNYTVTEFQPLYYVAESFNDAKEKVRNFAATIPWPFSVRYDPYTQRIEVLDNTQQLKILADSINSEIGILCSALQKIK
Experiment: Cell Based Phenylalanine Flux Assay
Details: 24 hrs with compound, then 20 μM sepiapterin and 800 μM 13C9,15N-Phenylalanine for 4 hours, 13C-Tyrosine by LC-MS, average where tested multiple times
Method in brief: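 A375 cells stably expressing lentiviral human PAH R408W were treated with compounds (10-point 2-fold dilutions, 0.5% DMSO, duplicate) for 24 h at 37 °C. Then 20 μM sepiapterin and 800 μM 13C9,15N-Phe were added for 4 h; media 13C-Tyr was measured by LC-MS to give AC50.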

[1] = A375 cells expressing R408W PAH

Row | SMILES | AC50 (A375 R408W cells) | AC50 [1]
1 | O=C(c1nnc(-c2ccccn2)o1)N1CCc2[nH]cnc2[C@@H]1c1nc2cc(F)ccc2o1 [Example 40, (R)-(4-(5-fluorobenzo[d]oxazol-2-yl)-6,7-dihydro-1H-imidazo[4,5-c]pyridin-5(4H)-yl)(5-(pyridin-2-yl)-1,3,4-oxadiazol-2-yl)methanone] | 1000 to 5000 nM | 
2 | Cn1cncc1-c1nnc(C(=O)N2CCc3[nH]cnc3C2c2nc3c(F)ccc(F)c3o2)o1 (stereo not drawn) |  | ≥ 5000 nM
3 | O=C(c1oc(-c2ccncc2)nc1C(F)F)N1CCc2[nH]cnc2[C@H]1c1nc2cc(F)ccc2o1 [Example 421, (S)-(4-(difluoromethyl)-2-(pyridin-4-yl)oxazol-5-yl)(4-(5-fluorobenzo[d]oxazol-2-yl)-6,7-dihydro-1H-imidazo[4,5-c]pyridin-5(4H)-yl)methanone] | ≤ 500 nM | 
4 | O=C(CCc1ncco1)N1CCc2[nH]cnc2[C@H]1c1nc2cccc(F)c2o1 [Example 387, (S)-1-(4-(7-fluorobenzo[d]oxazol-2-yl)-6,7-dihydro-1H-imidazo[4,5-c]pyridin-5(4H)-yl)-3-(oxazol-2-yl)propan-1-one] | 500 to 1000 nM | 
5 | O=C(c1cnn2cc(N3CCOCC3)ccc12)N1CCc2[nH]cnc2[C@H]1c1nc2c(F)cccc2o1 [Example 504, (S)-(4-(4-fluorobenzo[d]oxazol-2-yl)-6,7-dihydro-1H-imidazo[4,5-c]pyridin-5(4H)-yl)(6-morpholinopyrazolo[1,5-a]pyridin-3-yl)methanone] | 500 to 1000 nM | 
6 | Cn1nc(Cl)nc1C(=O)N1CCc2[nH]cnc2[C@@H]1c1nc2c(F)cccc2o1 [Example 278, (R)-(3-chloro-1-methyl-1H-1,2,4-triazol-5-yl)(4-(4-fluorobenzo[d]oxazol-2-yl)-6,7-dihydro-1H-imidazo[4,5-c]pyridin-5(4H)-yl)methanone] | 1000 to 5000 nM | 
7 | Cn1nc(N)cc1C(=O)N1CCc2[nH]cnc2C1c1nc2cc(F)ccc2o1 (stereo not drawn) |  | ≥ 5000 nM
8 | Cn1cc(-c2nnc(C(=O)N3CCc4[nH]cnc4C3c3nc4cc(C(F)(F)F)ccc4o3)o2)cn1 (stereo not drawn) |  | 1000 to 5000 nM
9 | CC(C)(O)c1nc(Br)c(C(=O)N2CCc3[nH]cnc3[C@@H]2c2nc3c(F)cccc3o2)o1 [Example 251, (R)-(4-bromo-2-(2-hydroxypropan-2-yl)oxazol-5-yl)(4-(4-fluorobenzo[d]oxazol-2-yl)-6,7-dihydro-1H-imidazo[4,5-c]pyridin-5(4H)-yl)methanone] | 1000 to 5000 nM | 
10 | Cc1nc([C@@H](C)O)oc1C(=O)N1CCc2[nH]cnc2[C@H]1c1nc2c(F)cccc2o1 [Example 210, ((S)-4-(4-fluorobenzo[d]oxazol-2-yl)-6,7-dihydro-1H-imidazo[4,5-c]pyridin-5(4H)-yl)(2-((R)-1-hydroxyethyl)-4-methyloxazol-5-yl)methanone] | 500 to 1000 nM | 
11 | Cc1ccc2oc([C@H]3c4nc[nH]c4CCN3C(=O)c3oc(C(C)(C)O)nc3C(F)F)nc2c1 [Example 312, (R)-(4-(difluoromethyl)-2-(2-hydroxypropan-2-yl)oxazol-5-yl)(4-(5-methylbenzo[d]oxazol-2-yl)-6,7-dihydro-1H-imidazo[4,5-c]pyridin-5(4H)-yl)methanone] | 500 to 1000 nM | 
12 | CC(C)(O)c1nc(C(F)F)c(C(=O)N2CCc3[nH]cnc3[C@@H]2c2nc3cc(F)ccc3o2)o1 (single isomer, unassigned) [Example 108] | 1000 to 5000 nM | 
13 | Cc1ccc2oc([C@H]3c4nc[nH]c4CCN3C(=O)c3nnc(-c4ccccn4)o3)nc2c1 [Example 98, (R)-(4-(5-methylbenzo[d]oxazol-2-yl)-6,7-dihydro-1H-imidazo[4,5-c]pyridin-5(4H)-yl)(5-(pyridin-2-yl)-1,3,4-oxadiazol-2-yl)methanone] | 1000 to 5000 nM | 
14 | COc1cccc2nc([C@H]3c4nc[nH]c4CCN3C(=O)c3nc(C)nn3C)oc12 [Example 910, (R)-(1,3-dimethyl-1H-1,2,4-triazol-5-yl)(4-(7-methoxybenzo[d]oxazol-2-yl)-6,7-dihydro-1H-imidazo[4,5-c]pyridin-5(4H)-yl)methanone] | ≥ 5000 nM | 
15 | O=C(c1nnc(-c2ccccn2)o1)N1CCc2[nH]cnc2[C@H]1c1nc2c(F)ccc(F)c2o1 [Example 520, (S)-(4-(4,7-difluorobenzo[d]oxazol-2-yl)-6,7-dihydro-1H-imidazo[4,5-c]pyridin-5(4H)-yl)(5-(pyridin-2-yl)-1,3,4-oxadiazol-2-yl)methanone] | ≤ 500 nM | 
16 | O=C(c1ocnc1C(F)F)N1CCc2[nH]cnc2[C@H]1c1nc2cc(Br)cc(F)c2o1 [Example 573, (S)-(4-(5-bromo-7-fluorobenzo[d]oxazol-2-yl)-6,7-dihydro-1H-imidazo[4,5-c]pyridin-5(4H)-yl)(4-(difluoromethyl)oxazol-5-yl)methanone] | ≤ 500 nM | 
17 | Cc1n[nH]cc1-c1nnc(C(=O)N2CCc3[nH]cnc3C2c2nc3cc(F)ccc3o2)o1 (stereo not drawn) |  | 1000 to 5000 nM
18 | O=C(c1ocnc1C(F)(F)F)N1CCc2[nH]cnc2[C@H]1c1nc2ccccc2o1 [Example 797, (S)-(4-(benzo[d]oxazol-2-yl)-6,7-dihydro-1H-imidazo[4,5-c]pyridin-5(4H)-yl)(4-(trifluoromethyl)oxazol-5-yl)methanone] | ≤ 500 nM | 
19 | Cn1nc(C(C)(C)C)cc1C(=O)N1CCc2[nH]cnc2C1c1nc2ccccc2o1 (stereo not drawn) |  | 1000 to 5000 nM
20 | Cc1ccc2nc([C@H]3c4nc[nH]c4CCN3C(=O)c3ocnc3C(F)(F)F)oc2c1 [Example 58, (R)-(4-(6-methylbenzo[d]oxazol-2-yl)-6,7-dihydro-1H-imidazo[4,5-c]pyridin-5(4H)-yl)(4-(trifluoromethyl)oxazol-5-yl)methanone] | ≤ 500 nM | 
21 | O=C(c1cnn2cc(N3CCC(O)CC3)ccc12)N1CCc2[nH]cnc2[C@@H]1c1nc2cc(F)cc(F)c2o1 [Example 700, (R)-(4-(5,7-difluorobenzo[d]oxazol-2-yl)-6,7-dihydro-1H-imidazo[4,5-c]pyridin-5(4H)-yl)(6-(4-hydroxypiperidin-1-yl)pyrazolo[1,5-a]pyridin-3-yl)methanone] | ≥ 5000 nM | 
22 | CC(C)(O)c1cc(C(=O)N2CCc3[nH]cnc3C2c2nc3cccc(F)c3o2)no1 (stereo not drawn) |  | 1000 to 5000 nM
23 | Cn1nc(C(F)F)nc1C(=O)N1CCc2[nH]cnc2[C@@H]1c1nc2cc(F)cc(F)c2o1 [Example 578, (R)-(4-(5,7-difluorobenzo[d]oxazol-2-yl)-6,7-dihydro-1H-imidazo[4,5-c]pyridin-5(4H)-yl)(3-(difluoromethyl)-1-methyl-1H-1,2,4-triazol-5-yl)methanone] | 1000 to 5000 nM | 
24 | Cc1ccc2nc(C3c4nc[nH]c4CCN3C(=O)c3cnn4cc(CN(C)C)ccc34)oc2c1 (stereo not drawn) |  | 1000 to 5000 nM
25 | Cc1cccc2nc([C@@H]3c4nc[nH]c4CCN3C(=O)c3nnc(-c4cnn(C(F)F)c4)o3)oc12 [Example 872, (S)-(5-(1-(difluoromethyl)-1H-pyrazol-4-yl)-1,3,4-oxadiazol-2-yl)(4-(7-methylbenzo[d]oxazol-2-yl)-6,7-dihydro-1H-imidazo[4,5-c]pyridin-5(4H)-yl)methanone] | 500 to 1000 nM | 
26 | O=C(c1ccnn1C(F)F)N1CCc2[nH]cnc2[C@H]1c1nc2c(F)cc(F)cc2o1 [Example 489, (S)-(4-(4,6-difluorobenzo[d]oxazol-2-yl)-6,7-dihydro-1H-imidazo[4,5-c]pyridin-5(4H)-yl)(1-(difluoromethyl)-1H-pyrazol-5-yl)methanone] | 500 to 1000 nM | 
27 | Cc1ncoc1C(=O)N1CCc2[nH]cnc2[C@H]1c1nc2c(F)ccc(F)c2o1 [Example 807, (S)-(4-(4,7-difluorobenzo[d]oxazol-2-yl)-6,7-dihydro-1H-imidazo[4,5-c]pyridin-5(4H)-yl)(4-methyloxazol-5-yl)methanone] | ≤ 500 nM | 
